The data set can be described thus: Pharmacokinetic study in rats at 100 mpk (Experimental Embodiment 4). Type of data set: in vivo. Particulars: male SD rats; for AUC(0-inf) / AUC(0-t) / Cmax / Tmax / half-life: Sprague-Dawley, rat, plasma, po, 100 mg/kg. The protocol:
SD rats (overnight fasting, 7 to 11 weeks old)
The compound of the present disclosure or its crystal form of 5% DMSO/10% Kolliphor HS15/85% (0.2% (v/v) Tween80 aqueous solution) at 10 mg/mL was administered by gavage to male SD rats (overnight fasting, 7 to 11 weeks old) at a dose of 100 mg/kg. At 0.25, 0.5, 1.0, 2.0, 4.0, 8.0 and 24 h after administration, approximately 0.2 mL of blood was collected from the jugular vein of the animals in all three groups, placed in an anticoagulant tube added with EDTA-K2, and centrifuged for the separation of plasma. Plasma concentrations were determined by LC-MS/MS method, and relevant pharmacokinetic parameters were calculated using WinNonlin™ Version 6.3 (Pharsight, Mountain View, CA) pharmacokinetic software with non-compartmental model linear-log trapezoidal method.

The text below walks through data of patent US20240409534A1, “CRYSTAL FORM OF METHYLPYRAZOLE-SUBSTITUTED PYRIDOIMIDAZOLE COMPOUND AND PREPARATION METHOD THEREFOR” (priority 2021, published 2024).

A word on the AUC(0-inf): it is the area under the concentration-time curve extrapolated to infinity. As a reminder, the AUC(0-t) is exposure summed from dosing to a finite time, without extrapolation to infinity. A lower AUC(0-t) goes with low exposure. For orientation: Cmax means the peak of the concentration-time curve. As usually defined, the Tmax is the time at which the peak concentration occurs. What is called half-life is the time needed for the level to fall by half in the phase considered. Regarding `CS(=O)(=O)O.Cn1cc(-c2ccn3c(-c4cc(NS(C)(=O)=O)nc(-c5ccc(F)cc5F)c4)cnc3c2)cn1`, the AUC(0-inf) came to 179 µM·h, the AUC(0-t) amounted to 179 µM·h, the concentration peaked (Cmax) at 22.1 µM and the Tmax worked out at 2.5 h. The half-life was 1.85 h and the Tlast turned out to be 24.0 h.

With `Cl.Cn1cc(-c2ccn3c(-c4cc(NS(C)(=O)=O)nc(-c5ccc(F)cc5F)c4)cnc3c2)cn1`, the AUC(0-inf) was found to be 32.3 µM·h, the AUC(0-t) turned out to be 32.3 µM·h, the Cmax turned out to be 8.78 µM and the Tmax is 0.5 h. The compound further had a half-life of 2.57 h and a Tlast of 24.0 h.

Turning to `Cn1cc(-c2ccn3c(-c4cc(NS(C)(=O)=O)nc(-c5ccc(F)cc5F)c4)cnc3c2)cn1` [Compound represented by formula (I)], the AUC(0-inf) is 12.6 µM·h, the AUC(0-t) amounted to 12.6 µM·h, the highest level (Cmax) was 3.75 µM and the time of peak concentration (Tmax) turned out to be 0.5 h. The same compound had a half-life of 2.25 h and a Tlast of 24.0 h.
